{"source": "patent US20210205329A1", "about": "(The University of North Carolina at Chapel Hill, priority 2018, published 2021)", "key": {"[1]": {"test_system": "TLR7 signal", "test": "Imiquimod-activated TLR7 signaling in RAW264.7 cells", "format": "cell-based, mouse", "conditions": "imiquimod 1 μg/ml for 24 hours, RAW264.7", "experimental": "Because multiple TLRs signal through MD-2, […] and MyD-88, the specificity of the neurosteroid 3α,5α-THP on TLR2, TLRS and TLR7 signal activation was examined in RAW264.7 ceils (FIG. 7). Pam3Cys (10 μg/ml) activated TLR2 signaling, evidenced by increases in pCREB, pERK1/2, TRAF6 and pATF-2, that were sustained for 24 hrs and inhibited by 3α,5α-THP (1 μM) (50-60% compared to vehicle)."}, "[2]": {"test_system": "TLR3 signal", "test": "Poly(I:C)-activated TLR3 signaling in RAW264.7 cells", "format": "cell-based, mouse", "conditions": "Poly-IC 25 μg/ml; 24 hrs; RAW264.7"}, "[3]": {"test_system": "LPS-activated TLR4 signal", "test": "LPS-activated TLR4 signaling in RAW264.7 cells (immunoblotting)", "format": "cell-based, mouse", "experimental": "Cells and reagents. Mouse monocyte macrophage ceils (RAW264.7) that innately express the TLR4 receptor were obtained from American Type Culture Collection (Manassas, Va., USA). The cells were grown in Dulbecco's modified Eagle's medium (DMEM) (Gibco; Gaithersburg, Md., USA) supplemented with 10% fetal bovine serum (FBS, Gemini, West Sacramento, Calif., USA), 1% penicillin/streptomycin 100× (Gibco) at 37° C. in a 5% CO2 humidified atmosphere. The TLR4-specific ligand IPS was purchased from Sigma-Aldrich (St. Louis, Mo., USA) (Cat. #L3024) and added to the cultures (1 μg/ml) 24 hrs before cell collection.\nImmunoblotting. The assay used for RAW264.7 cell lysates and co-immunoprecipitation was as previously described (Aurelian et al, 2016; June et al, 2015; Liu et al, 2011). RAW246.7 cells grown on T-75 flasks (n=5 flasks/group) were lysed with radioimmunoprecipitation (RIPA) buffer [20 mM Tris-HCl (pH 7.4), […], 1% Nonidet P-40 (Sigma, St. Louis, Mo., USA), 0.1% SDS (sodium dodecyl sulfate), 0.5% sodium deoxycholate] supplemented with protease and phosphatase inhibitor cocktails (Sigma). The total protein was determined by the bicinchoninic acid assay (BCA, Thermo Fisher Scientific, Waltham, Mass., USA, Cat. #23228 and Cat. #1859078). The proteins (100 μg/lane) were resolved by SDS-polyacrylamide gel electrophoresis using freshly prepared 16×18 cm gels and transferred to polyvinylidene fluoride membranes (PVDF, Bio-Rad, Cat. #162-0177). Blots were blocked with 5% Blotting-Grade Blocker (Bio-Rad, Cat. #1706404; for non-phosphorylated primary antibodies) or 5% BSA (for phosphorylated primary antibodies) for 2 hrs at room temperature (RT) and exposed to primary antibody overnight (4° C.), followed by horseradish peroxidase-labeled secondary antibodies for 1 h (room temp), immunoreactive bands were visualized with the Plus-ECL kit reagents (Perkin Elmer, Waltham, Mass., USA, Cat. #NEL105001EA) followed by exposure to high-performance chemiluminescence film (Hyperfilm ECL; Amersham). Quantitation was by densitometric scanning with a Bio-Rad GS-700 imaging densitometer. Blots were stripped and re-probed with different primary antibodies 3-5 times. Each densitometric measurement was divided by the corresponding β-Actin densitometric measurement and the results [n=5/group] are expressed as the mean β-Actin-adjusted densitometric units±SEM.\nTo examine whether the neurosteroids inhibit the LPS-activated TLR4 signal, RAW264.7 cells were treated with IPS (1 μg/mi; 24 hrs) in the absence or presence of 3α,5α-THP (0.5 μM, 1 μM) or pregnenolone (0.5 μM, 1 μM), and ceil extracts were assayed for expression of MyD88-dependent pathway members, by immunoblotting with antibodies to pTAK1, monocyte chemotactic protein (MCP-1), TRAF6, TLR4, and transcription factor NFκB p50 (Chattopadhyay S, et al. (2014). Cytokine Growth Factor Rev 25(5): 533-541; Irie T, et al. (2000). FEBS Lett 467(2-3): […]; Lu Y C, et al. (2008). Cytokine 42(2): 145-151).\nBecause the neurosteroids had relatively little effect on NFκB p50, the possibility that inhibition of other transcription factors and proinflammatory responses may be involved was considered. RAW246.7 ceils were treated as described above and protein extracts were immunoblotted with antibodies to phospho-NF-κB p65, pCREB, the proinflammatory cytokine tumor necrosis factor alpha (TNFα), and high mobility group box-1 (HMGB1), a highly conserved non-histone chromosomal protein, the translocation of which from the intra- to extra-cellular environment is a critical event in inflammatory responses. Indeed, HMGB1 is currently recognized as a cytokine secreted from activated macrophages and other inflammatory cells during the innate immune response and if is believed to function as a TLR4 ligand. […]"}, "[4]": {"test_system": "innately activated TLR4 signal in P rat VTA", "test": "TLR4 signaling in P rat VTA after systemic neurosteroid (immunoblot, MCP-1 ELISA)", "format": "in vivo", "conditions": "15 mg/kg IP, P rats", "experimental": "Immunoblotting for whole VTA lysates was done as previously described (Carlson et al, 2013). Briefly, VTA micropunches (1 mm thick) were lysed with CelLytic MT (dialyzable mild detergent, bicine, and 150 mM NaCl; Sigma-Aldrich) and protease and phosphatase inhibitor cocktail according to the manufacturer's instructions. Total protein was determined by the BCA assay. The proteins (10 μg/lane) were resolved by NuPAGE™ 4-12% Bis-Tris Midi Protein Gel (Thermo Fisher, Waltham, Mass.) electrophoresis and transferred using the iBlot 2 Dry Blotting System (Thermo Fisher, Waltham, Mass.). Blots were then exposed to an antibody for β-actin for normalization. Proteins were detected with enhanced chemilumenescence (GE Healthcare, Amersham, UK). Membranes were exposed to film under non-saturating conditions. Densitometric analysis was conducted using NIH Image 1.57.\nAnimals. Selectively bred, but alcohol naïve Alcohol-preferring (P) rats (male, 3-4 months old; 250-550 g) (n=7-9/group) were obtained from the Alcohol Research Center, Indiana University School of Medicine, Animals were double housed in Plexiglas cages containing corn cob bedding and food and water was available ad libitum. The colony room was maintained on a normal 12 hr light-dark cycle (light onset at 0700 hr). Procedures followed National Institutes of Health Guidelines under UNC institutional Animal Care and Use Committee approved protocols at University of North Carolina School of Medicine. Rats were habituated to handling for 7 days prior to administration of 3α,5α-THP (15 mg/kg, IP), pregnenolone (75 mg/kg, IP), 3α,5α-THDOC (15 mg/kg, IP), or vehicle (45% w/v 2-hydroxypropyl-p-cyclodextrin) and returned to their home cage. Rats were sacrificed after 45 minutes and the brain was removed and frozen at −80° C. until VTA micropunches were collected from 1 mm cryostat brain sections. This time point was selected because 3α,5α-THP is rapidly metabolized in vivo (Purdy et al, 1990), but has behavioral and pharmacological activity at this time point (Crawley et al, 1986).\nELISA. Brain tissue micropunches were lysed with Cellyte MT and the extracts were assayed for protein content by the BCA procedure (Pierce) and for MCP-1 using the rat MCP-1 ELISA kit (Raybiotech—ERC-MCP-1-CL; Norcross, Ga., USA) or for fracktalkine using the rat fractalkine ELISA kit (Raybiotech—ERC-CX3CL1-CL; Norcross, Ga., USA) as per manufacturer's instructions.\nSince the neurosteroids inhibited the TLR4 activation signal in cultured macrophage cells, experiments were conducted to determine whether this also occurs in the brain. Selectively bred P rats that have an innately activated TLR4 signal in the VTA (Liu J, et al. (2011). Proc Natl Acad Sci USA 108(11): 4465-4470), were administered 3α,5α-THP (15 mg/kg, IP) or pregnenolone (75 mg/kg, IP), sacrificed after 45 minutes and examined for TLR4 signaling using parallel measures. […] 3α,5α-THP administration reduced the levels of MCP-1 by 20±9% (p<0.05), TRAF6 by 19±3% (p<0.0001), and CRF by 28±9% (p<0.01), with no effect on TLR4 protein expression (FIG. 4A). Pregnenolone administration had no effect on TRAF6, CRF, or TLR4."}, "[5]": {"conditions": "0.5 μM or 1 μM (concentration not assigned), RAW264.7"}, "[6]": {"conditions": "1.0 μM, LPS 1 μg/ml, 24 hrs, RAW264.7"}}}
{"molecule": "CC(C)Cn1cnc2c(N)nc3ccccc3c21", "note": "[imiquimod]", "values": [{"measurement": "increase in pIRF7", "setting": "[1]", "result": 30, "unit": "%"}]}
{"molecule": "Poly-IC", "values": [{"measurement": "increase in IP-10 (CXCL10) expression", "setting": "[2]", "result": 90, "unit": "%"}]}
{"molecule": "C[C@]12CC[C@@H](O)C[C@@H]1CC[C@@H]1[C@@H]2CC[C@]2(C)[C@@H](C(=O)CO)CC[C@@H]12", "note": "[3α,5α-THDOC, (3α,5α)3,21-dihydroxypregnan-20-one]", "values": [{"measurement": "inhibition of LPS-activated MCP-1", "setting": "[3]; [5]", "result": "approximately 90%"}, {"measurement": "inhibition of LPS-activated NFκB p50", "setting": "[3]; [5]", "result": "30-40%"}, {"measurement": "effect on TLR4 expression", "setting": "[3]; 0.5 μM or 1 μM, LPS-treated RAW264.7, 24 hrs", "result": "did not affect"}, {"measurement": "enhancement of LPS-induced TRAF6", "setting": "[3]; 0.5 μM, LPS 1 μg/ml, 24 hrs, RAW264.7", "result": "51.6±8.3", "unit": "%"}, {"measurement": "enhancement of LPS-induced TRAF6", "setting": "[3]; [6]", "result": "16.8±5.7", "unit": "%"}, {"measurement": "increase of LPS-induced pTAK1", "setting": "[3]; [6]", "result": 2, "unit": "fold"}, {"measurement": "effect on TLR4 protein expression in VTA", "setting": "[4]; 45 minutes", "result": "No effect"}, {"measurement": "increase of CRF levels in VTA", "setting": "[4]", "result": "39±16", "unit": "%"}, {"measurement": "increase of TRAF6 levels in VTA", "setting": "[4]", "result": "32±12", "unit": "%"}, {"measurement": "effect on MCP-1 expression in VTA", "setting": "[4]; ELISA", "result": "no effect"}]}
